Source: article PMC7044277 (Nature Communications, 2020)
Several values for one entry are separate records, joined by “and”; a condition that tells them apart may be missing. Equal entries are not always repeated.

Columns and labels:
DRD4 (D4.4 variant) [1] = biological target: T1, DRD4 (D4.4 variant) (Homo sapiens, UniProt P21917); experiment: β-arrestin2 recruitment (Tango); type: cell-based; conditions: DRD4; Tango; read-out: EC50 ± SEM
T1 sequence (P21917 1-419): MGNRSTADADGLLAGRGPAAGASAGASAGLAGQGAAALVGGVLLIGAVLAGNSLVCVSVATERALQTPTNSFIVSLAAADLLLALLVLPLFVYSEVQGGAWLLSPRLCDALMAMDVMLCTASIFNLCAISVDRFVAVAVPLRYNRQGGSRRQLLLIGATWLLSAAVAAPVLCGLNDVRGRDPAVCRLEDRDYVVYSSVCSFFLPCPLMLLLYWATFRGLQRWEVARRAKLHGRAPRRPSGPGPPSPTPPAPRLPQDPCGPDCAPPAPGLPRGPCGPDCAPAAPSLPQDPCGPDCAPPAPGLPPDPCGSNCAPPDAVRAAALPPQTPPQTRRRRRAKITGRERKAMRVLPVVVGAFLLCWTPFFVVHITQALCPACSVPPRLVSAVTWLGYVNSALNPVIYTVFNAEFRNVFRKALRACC

DRD4 (D4.4 variant) [2] = biological target: T1, DRD4 (D4.4 variant); experiment: Gαi/o-mediated cAMP inhibition (GloSensor); type: cell-based; conditions: DRD4; agonist, cAMP inhibition; read-out: EC50 ± SEM
DRD2 (D2 long receptor) [3] = biological target: T2, DRD2 (D2 long receptor) (Homo sapiens, UniProt P14416); experiment: Gαi/o-mediated cAMP inhibition (GloSensor split-luciferase cAMP reporter), HEK293T; type: cell-based; conditions: for EC50: agonist, Gαi/o-mediated cAMP inhibition, read-out: EC50 ± SEM; for Response, Fig_S11b dose-response: individual replicates;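 on all read-outs here: compounds applied 15 min at room temperature, then luciferin plus 400 nM isoproterenol to raise cAMP through endogenous β2-adrenergic receptors, luminescence read 15 min later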
[4] = biological target: T3, DRD4 (D4.4 variant) wild-type (Homo sapiens, UniProt P21917); experiment: Radioligand competition binding, [3H]-N-methylspiperone; conditions: for Ki: DRD4, [3H]-methylspiperone (0.8-1.0 nM), read-out: Ki
T3 sequence (P21917 1-419): T1 sequence (P21917 1-419)

DRD2 (D2 long receptor) [5] = biological target: T2, DRD2 (D2 long receptor); experiment: β-arrestin2 recruitment (Tango), HTLA cells; type: cell-based; conditions: for Emax relative to quinpirole response / EC50: DRD2; for Emax relative to quinpirole response: Tango; for EC50: β-arrestin2 recruitment (Tango), read-out: EC50 ± SEM; for Response, Fig_S11c dose-response: individual replicates
DRD3 = DRD3 (Homo sapiens, UniProt P35462); experiment: β-arrestin2 recruitment (Tango); type: cell-based; conditions: DRD3, Tango; for EC50: read-out: EC50 ± SEM
[6] = biological target: DRD2 (D2 long receptor) wild-type (Homo sapiens, UniProt P14416); experiment: Radioligand competition binding, [3H]-N-methylspiperone, HEK293T membranes; conditions: for Ki: DRD2, [3H]-methylspiperone (0.8-1.0 nM), read-out: Ki
DRD2 F1103.28A = DRD2 F1103.28A (Homo sapiens, UniProt P14416, F110A); type: binding; set-up: expressed in transfected cells; host or cells: HEK293T (ATCC CRL-11268); conditions: DRD2 F1103.28A; for Ki: read-out: Ki
DRD3 wild-type = DRD3 wild-type (Homo sapiens, UniProt P35462); experiment: Radioligand competition binding, [3H]-N-methylspiperone; conditions: for Ki: DRD3, [3H]-methylspiperone (0.8-1.0 nM), read-out: Ki; for pKi ± SEM: DRD3 wild-type
Chain of DRD3 wild-type (P35462 whole entry): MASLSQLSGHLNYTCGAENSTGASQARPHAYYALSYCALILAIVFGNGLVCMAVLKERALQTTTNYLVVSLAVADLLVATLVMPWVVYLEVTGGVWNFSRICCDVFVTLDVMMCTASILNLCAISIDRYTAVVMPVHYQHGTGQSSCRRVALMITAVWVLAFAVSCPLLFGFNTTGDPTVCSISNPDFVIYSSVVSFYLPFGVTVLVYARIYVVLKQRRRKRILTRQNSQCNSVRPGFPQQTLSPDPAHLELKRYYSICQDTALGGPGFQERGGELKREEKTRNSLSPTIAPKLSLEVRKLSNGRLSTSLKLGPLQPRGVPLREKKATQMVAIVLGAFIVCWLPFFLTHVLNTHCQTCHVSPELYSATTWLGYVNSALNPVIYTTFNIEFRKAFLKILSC

Chain of DRD2 F1103.28A (P14416 whole entry F110A): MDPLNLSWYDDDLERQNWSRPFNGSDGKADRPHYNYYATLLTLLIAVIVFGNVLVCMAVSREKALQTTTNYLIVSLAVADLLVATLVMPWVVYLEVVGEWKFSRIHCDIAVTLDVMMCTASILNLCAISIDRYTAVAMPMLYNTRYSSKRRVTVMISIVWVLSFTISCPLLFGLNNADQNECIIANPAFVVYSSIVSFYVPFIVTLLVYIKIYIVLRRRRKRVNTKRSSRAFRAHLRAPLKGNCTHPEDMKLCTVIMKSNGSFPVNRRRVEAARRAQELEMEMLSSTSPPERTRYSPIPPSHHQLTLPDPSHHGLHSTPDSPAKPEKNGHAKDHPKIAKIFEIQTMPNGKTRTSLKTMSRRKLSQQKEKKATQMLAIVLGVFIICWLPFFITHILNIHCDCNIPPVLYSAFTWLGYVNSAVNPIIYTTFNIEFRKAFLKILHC
T2 sequence (P14416 whole entry): as the sequence (P14416 whole entry F110A) above, with A110F counted along it
Chain of DRD2 (D2 long receptor) wild-type (P14416 whole entry): as the sequence (P14416 whole entry F110A) above, with A110F counted along it
Chain of DRD3 (P35462 whole entry): as the sequence (P35462 whole entry) above

Structure (SMILES): CCCOc1cccc2cc(C(C)NCC3(O)CCCCC3)oc12.Cl (centres unmarked) [O5LE6]
- EC50 (DRD4 (D4.4 variant) [1]): > 10 µM
- EC50 (DRD4 (D4.4 variant) [2]): > 10 µM
- EC50 (DRD2 (D2 long receptor) [3]; DRD2): 0.00051 ± 0.00022 µM
- Emax relative to quinpirole response (DRD2 (D2 long receptor) [3]; DRD2, cAMP inhibition): 92.80%
- Response, Fig_S11b dose-response (DRD2 (D2 long receptor) [3]; Log[Drug] -5): 93.7387 and 96.4518 and 83.3289 and 97.2506 and 100.948 and 91.5558 and 103.412 and 92.2091 and 101.183
- Response, Fig_S11b dose-response (DRD2 (D2 long receptor) [3]; Log[Drug] -5.52): 82.1384 and 82.3875 and 75.0785 and 87.4334 and 93.0858 and 74.7688 and 89.9797 and 94.4943 and 85.5765
- Response, Fig_S11b dose-response (DRD2 (D2 long receptor) [3]; Log[Drug] -6): 92.7696 and 95.5936 and 84.8792 and 92.7883 and 90.7908 and 90.8333 and 98.9533 and 107.927 and 83.4028
- Response, Fig_S11b dose-response (DRD2 (D2 long receptor) [3]; Log[Drug] -6.52): 97.1163 and 91.7176 and 84.6854 and 100.523 and 99.588 and 84.586 and 94.4943 (2×) and 87.9175
- Response, Fig_S11b dose-response (DRD2 (D2 long receptor) [3]; Log[Drug] -7): 88.7275 and 92.9358 and 71.1749 and 92.7033 and 88.1559 and 76.2138 and 94.4943 and 90.0354 and 94.6058
- Response, Fig_S11b dose-response (DRD2 (D2 long receptor) [3]; Log[Drug] -7.52): 77.9025 and 80.4772 and 73.7773 and 81.6111 and 84.246 and 79.2737 and 92.3206 (2×) and 90.0912
- Response, Fig_S11b dose-response (DRD2 (D2 long receptor) [3]; Log[Drug] -8): 77.3211 and 65.3055 and 54.0098 and 88.3259 and 67.3316 and 76.7238 and 92.3764 and 94.6058 and 90.1469
- Response, Fig_S11b dose-response (DRD2 (D2 long receptor) [3]; Log[Drug] -8.52): 58.6056 and 55.6709 and 54.785 and 76.7663 and 68.819 and 71.6664 and 72.5342 and 65.79 and 68.0195
- Response, Fig_S11b dose-response (DRD2 (D2 long receptor) [3]; Log[Drug] -9): 60.5713 and 46.8115 and 46.2578 and 72.3889 and 53.7745 and 57.9819 and 43.7184 and 46.0036 and 36.9186
- Response, Fig_S11b dose-response (DRD2 (D2 long receptor) [3]; Log[Drug] -11): 6.418 and 5.781 and 25.106 and 20.5831 and 9.873 and -2.9186 and 1.972 and -15.9196 and 1.6931
- Response, Fig_S11b dose-response (DRD2 (D2 long receptor) [3]; Log[Drug] -11.52): -0.171 and -1.0016 and 12.1684 and 15.5258 and 10.8339 and -7.0018 and -2.6544
- Response, Fig_S11b dose-response (DRD2 (D2 long receptor) [3]; Log[Drug] -12): 10.388 and -0.6478 and -16.2541
- Ki [4]: 6.6 µM
- pKi ± SEM ([4]; DRD4 wild-type): 5.18±0.16
- Emax relative to quinpirole response (DRD2 (D2 long receptor) [5]): 96.83%
- EC50 (DRD2 (D2 long receptor) [5]): 0.048 ± 0.0174 µM
- response, Fig_S11c dose-response source data (DRD2 (D2 long receptor) [5]; Fig_S11c, Log[Drug] -5, replicate values): 92.0049 and 94.8711 and 101.869 and 86.3956 and 96.7296 and 94.1831 and 124.768 and 128.356
- Response, Fig_S11c dose-response (DRD2 (D2 long receptor) [5]; Log[Drug] -6.52): 78.0067 and 72.6033 and 81.7269
- Response, Fig_S11c dose-response (DRD2 (D2 long receptor) [5]; Log[Drug] -7): 59.3634 and 78.1496 and 92.3943 and 62.4498 and 64.4647 and 75.7752 and 66.3683 and 83.054 and 11.3874
- Response, Fig_S11c dose-response (DRD2 (D2 long receptor) [5]; Log[Drug] -7.52): 39.0633 and 46.4823 and 48.2261 and 47.7888 and 46.5069 and 50.1562 and 52.6803 and 36.834 and 2.983
- Response, Fig_S11c dose-response (DRD2 (D2 long receptor) [5]; Log[Drug] -8): 13.2042 and 18.1697 and 22.7864 and 24.8922 and 32.8443 and 29.0019 and 29.5472 and 40.4681 and 3.216
- Response, Fig_S11c dose-response (DRD2 (D2 long receptor) [5]; Log[Drug] -8.52): 6.043 and 5.645 and 6.29 and 8.275 and 9.219 and 10.0453 and 7.5026 and 13.6733
- Response, Fig_S11c dose-response (DRD2 (D2 long receptor) [5]; Log[Drug] -9): 3.483 and 3.9317 and 4.775 and 3.72 and 3.708 and 4.581 and 2.217 and 12.7509 and 0.7411
- Response, Fig_S11c dose-response (DRD2 (D2 long receptor) [5]; Log[Drug] -9.52): 2.993 and 3.331 and 4.098 and 2.754 and 3.737 and 4.1942 and 7.991 and 10.1775 and 1.675
- Response, Fig_S11c dose-response (DRD2 (D2 long receptor) [5]; Log[Drug] -10): 3.128 and 3.469 and 3.576 and 3.051 and 3 and 3.543 and 4.136 and 3.1859 and 0.7745
- Response, Fig_S11c dose-response (DRD2 (D2 long receptor) [5]; Log[Drug] -10.52): 3.13 and 3.099 and 3.417 and 2.557 and 2.786 and 3.353 and 2.31 and 1.747 and 0.1927
- Response, Fig_S11c dose-response (DRD2 (D2 long receptor) [5]; Log[Drug] -11): 2.735 and 2.569 and 3.311 and 2.422 and 2.816 and 3.208 and 1.747 and 3.739 and 0.4891
- Response, Fig_S11c dose-response (DRD2 (D2 long receptor) [5]; Log[Drug] -11.52): 2.576 and 2.946 and 3.152 and 2.7257 and 2.6254 and 2.896 and 3.227 and 4.708 and 2.264
- Response, Fig_S11c dose-response (DRD2 (D2 long receptor) [5]; Log[Drug] -12): 2.314 (2×) and 2.658 and 2.679 and 2.551 and 2.481 and 2.532 and 1.9407
- Emax relative to quinpirole response (DRD3): 53.92%
- EC50 (DRD3): 2.07 ± 0.524 µM
- Ki [6]: 2.51 µM
- pKi ± SEM ([6]; DRD2 wild-type): 5.60±0.27
- pKi ± SEM (DRD2 F1103.28A): 6.17±0.24
- Ki (DRD2 F1103.28A): 0.68 µM
- Ki (DRD3 wild-type): 0.39 µM
- pKi ± SEM (DRD3 wild-type): 6.41±0.20

Structure (SMILES): CCOc1cccc2cc(C(C)NCc3ccccc3)oc12.Cl (centres unmarked) [O4LE9]
- EC50 (DRD4 (D4.4 variant) [1]): > 10 µM
- EC50 (DRD4 (D4.4 variant) [2]): > 10 µM
- EC50 (DRD2 (D2 long receptor) [3]; DRD2): > 10 µM
- Ki [4]: > 10 µM
- Emax relative to quinpirole response (DRD2 (D2 long receptor) [5]): 19.73%
- EC50 (DRD2 (D2 long receptor) [5]): 5.37 ± 0.964 µM
- EC50 (DRD3): > 10 µM
- Ki [6]: > 10 µM
- pKi ± SEM (DRD2 F1103.28A): 5.28±0.02
- Ki (DRD2 F1103.28A): 5.25 µM
- Ki (DRD3 wild-type): 5.88 µM
- pKi ± SEM (DRD3 wild-type): 5.23±0.25
